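Step 1: Grow cells in 96-well plates. Step 2: Expose to compound for 48 hours at 5 concentrations. Step 3: Interpolate endpoints linearly; if unreached, use highest concentration. TGI is the concentration that stops growth completely.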
Key:
Assay in all cases: DTP human tumour cell line panel, 48 h
[1] = system: SNB-19 CNS
[2] = system: HL-60(TB) leukemia
[3] = system: A498 renal
[4] = system: SF-295 CNS
[5] = system: UACC-62 melanoma
[6] = system: IGROV1 ovarian
[7] = system: TK-10 renal
[8] = system: UO-31 renal
[9] = system: UACC-257 melanoma
[10] = system: COLO 205 colon
[11] = system: KM12 colon
[12] = system: HCT-116 colon
[13] = system: 786-0 renal
[14] = system: RXF 393 renal
[15] = system: A549 NSCLC
[16] = system: OVCAR-4 ovarian
[17] = system: RPMI-8226 leukemia
[18] = system: M14 melanoma
[19] = system: HCT-15 colon
[20] = system: SK-MEL-2 melanoma
[21] = system: NCI-H226 lung
[22] = system: LOX IMVI melanoma
[23] = system: OVCAR-8 ovarian
[24] = system: SK-MEL-28 melanoma
[25] = system: NCI-H23 lung
[26] = system: SR leukemia
[27] = system: DU-145 prostate
[28] = system: NCI/ADR-RES ovarian
[29] = system: SW-620 colon
[30] = system: MDA-MB-435
[31] = system: EKVX NSCLC
[32] = system: MDA-N
[33] = system: SN12C renal
[34] = system: U251 CNS
[35] = system: K-562 leukemia
[36] = system: HS 578T breast
[37] = system: NCI-H460 lung
[38] = system: MCF7 breast
[39] = system: HOP-92 NSCLC
[40] = system: PC-3 prostate
[41] = system: CAKI-1 renal
[42] = system: HOP-62 NSCLC
[43] = system: MOLT-4 leukemia
[44] = system: CCRF-CEM leukemia
[45] = system: NCI-H522 lung
[46] = system: T-47D breast
[47] = system: MDA-MB-231 breast
[48] = system: SF-268 CNS
[49] = system: OVCAR-5 ovarian
[50] = system: MALME-3M melanoma
[51] = system: SNB-75 CNS
[52] = system: SK-OV-3 ovarian
[53] = system: ACHN renal
[54] = system: HCC-2998 colon
[55] = system: HT29 colon
[56] = system: BT-549 breast
[57] = system: SK-MEL-5 melanoma
[58] = system: OVCAR-3 ovarian
[59] = system: SF-539 CNS

Measured: TGI

Nc1nnc2oc3ccc4ccccc4c3cc1-2
72.7 µM: [26]
81 µM: [51]
56.8 µM: [10]
97.1 µM: [47]
80.7 µM: [21]
77.4 µM: [54]
89.8 µM: [50]
72.5 µM: [20]
67.9 µM: [2]
71.8 µM: [3]
65.4 µM: [46]
> 100 µM: [1] | [4] | [5] | [6] | [7] | [8] | [9] | [11] | [12] | [13] | [14] | [15] | [16] | [17] | [18] | [19] | [22] | [23] | [24] | [25] | [27] | [28] | [29] | [30] | [31] | [32] | [34] | [35] | [36] | [37] | [38] | [39] | [40] | [41] | [42] | [43] | [44] | [45] | [48] | [49] | [52] | [55] | [56] | [57] | [58]
87 µM: [33]
80.1 µM: [53]

CNN1C(=O)c2c(C)c(C)c(C#N)c(N)c2C1=O
> 100 µM: [1] | [2] | [4] | [5] | [6] | [7] | [8] | [9] | [10] | [11] | [12] | [13] | [14] | [15] | [16] | [17] | [18] | [19] | [20] | [21] | [22] | [23] | [24] | [26] | [59] | [27] | [28] | [29] | [30] | [31] | [32] | [33] | [34] | [35] | [36] | [37] | [38] | [39] | [40] | [41] | [43] | [44] | [45] | [46] | [47] | [48] | [49] | [50] | [51] | [53] | [54] | [56] | [57] | [58]

Reference: PubChem BioAssay (NCI)
